Results taken from patent US20240316059A1, “PEPTIDE DRUG CONJUGATES” (Oncopeptides AB, priority 2021, published 2024).
pIC50: −log10 of the molar value. Like-named read-outs stand apart in the source and are kept apart here.

Tests used:
MM.1S cells [1] = experiment: In vitro cytotoxic potency in MM.1S cell viability assay (CellTiter-Glo); assay type: cell-based, human; details: 72 h, read-out: MM.1S IC50
Description: Methods: MM.1S Cells were cultivated in RPMI medium 1640 (IX) supplemented with 10 μg/μL penicillin/streptomycin, 10% heat inactivated FBS, 0.1 mM Sodium Pyruvate, 1×MEM NEAA (ThermoFisher) and 1 mM HEPES. Cells were grown to reach log phase before being exposed to the test compounds.
(§1) Test compounds (Example compounds 1 to 36, 38 to 41 and 45 to 48) and comparative compounds (bendamustine, busulfan, melphalan, chlorambucil and 4-hydroperoxy cyclophosphamide) were dissolved in 100% DMSO and added to a 384 assay plate. Additional DMSO was added to maintain the same final DMSO concentration (0.2%) in all wells. 25 μL cell suspension with a concentration of 100000 cells/mL was added to each well. The cells were cultured in a CO2 incubator at 37° C. for 72 h. Plates were equilibrated to room temperature for 30 minutes before adding 20 μL CellTiter-Glo® 2.0 (Promega) reagent to all wells. The plate was then allowed to stabilize for 20 minutes before recording the luminescence (emission filter 700 nm) in an Envision plate reader.
All cells were cultivated in RPMI medium 1640 (IX). All media was supplemented with 10 μg/μl penicillin/streptomycin, 10% heat inactivated FBS, 0.1 mM Sodium Pyruvate, 1×MEM NEAA (ThermoFisher) and 1 mM HEPES. The DERL-2 cells had higher FBS (20%) and 40 ng/mL IL-2 was added. hPBMCs were thawed and allowed to acclimatise overnight and then stimulated with 10 μg/mL PHA-M and 40 ng/mL IL-2 for 4 hours before being exposed to test compounds. All cells, except for hPBMCs, were grown to reach log phase before being exposed to the test compounds.
as §1, with “compounds” for “compounds (Example compounds 1 to 36, 38 to 41 and 45 to 48) and comparative compounds (bendamustine, busulfan, melphalan, chlorambucil and 4-hydroperoxy cyclophosphamide)”, “(Em” for “(emission”

MM.1S cells [2] = experiment: Cellular retention/efflux: intracellular and extracellular concentrations by LC-MS/MS; assay type: in vitro ADME, human; details: metabolites measured after treatment with the parent Example compound
Description: Methods: MMA1S cells at 2×10^6 cells/mL were seeded at 250 μL per well in a 96-well plate. Cells were incubated in the presence of a test compound for 5, 15, and 60 min before pelleting cells by centrifugation at +4° C. for 5 min. Cell media was immediately harvested to a second plate and stored at −80° C. until further analysis. Pelleted cells were washed once with ice cold PBS before storage at −80° C. until further analysis.
Cells were lysed and protein in the media were precipitated using acetonitrile dimethylformamide, 9:1 containing internal standard. Samples were centrifuged and the supernatant was analyzed with LC-MS/MS (ACQUITY UPLC-Xevo TQ-S micro) to determine compound concentration.
Example compound 1, bendamustine and melphalan were used as test compounds.
Method: Method described in Biological example 3.
Example compounds 1, 2, 3, 4, 6, 7 and 10 were investigated. Intracellular metabolites are formed from all compounds tested. The compound used for cell treatment was metabolised to the ester-hydrolysed compound (here called Metabolite A) and to the amide-hydrolysed compound (called Metabolite B). The example compound structures and the structures of the two metabolites for the respective compounds were as shown in Table 4. The Metabolites B formed under the conditions tested were compounds with structure as Examples 17 and 18: […]

[3] = tested on: DNA prepared from MM.1S cells (nuclear HPRT and mitochondrial DNA); experiment: Direct DNA damage, PCR amplification of treated DNA (HPRT and mtDNA primers); assay type: biochemical, human; details: 0.25 μM compound, 30 minutes, 37° C., 1 μg DNA
Description: Method: DNA was prepared from MM.1S cells by QIAGEN genomic tip 20/G according to protocol described in Furda et al., Methods Mol Biol, 2012. 1 μg of DNA was treated with 0.25 μM compound for 30 minutes at 37° C. DMSO was used as control treatment. 20 ng of the treated DNA was PCR amplified using Phusion Hot Start II High Fidelity PCR Master Mix (Thermo Scientific) and primers directed to either HPRT or primers directed to mitochondrial DNA (mtDNA) was used, generating 10.4 or 8.9 kb fragments, respectively. The PCR reactions were separated on a 1% agarose gel and visualized by ChemiDoc™ MP Imaging System (BioRad). Example compounds 1, 2 and 38 were investigated, as were compounds 18 and 20, which are metabolites of compound 1. They were compared with bendamustine, melphalan and DMSO control. The results for compounds 1, 2, 18 and 20 with the HPRT primers are shown in FIG. 4(A); the results with the mtDNA primers are shown in FIG. 4(B).

Row | SMILES | pIC50 (MM.1S cells [1]; Homo sapiens, MM1.S) | further results
1 | Cn1c(CC[C@H](N)C(=O)O)nc2cc(N(CCCl)CCCl)ccc21 [Example 18, (S)-2-amino-4-(5-(bis(2-chloroethyl)amino)-1-methyl-1H-benzo[d]imidazol-2-yl)butanoic acid] | 4.69 | Intracellular concentration (in words) (MM.1S cells [2]; MM.1S cells incubated with test compound 5, 15, 60 min): rapidly formed inside the cells; Extracellular concentration (in words) (MM.1S cells [2]; media of MM.1S cells incubated with test compound 5, 15, 60 min): low levels of it are found in the media outside the cells; DNA damage on nuclear and mitochondrial DNA (PCR band) [3]: effectively damaged both nuclear and mitochondrial DNA
2 | CC(C)C[C@H](NC(=O)[C@@H](N)CCc1nc2cc(N(CCCl)CCCl)ccc2n1C)C(=O)O [Example 20, (2S)-2-[[(2S)-2-amino-4-[5-[bis(2-chloroethyl)amino]-1-methyl-benzimidazol-2-yl]butanoyl]amino]-4-methyl-pentanoic acid] | 5.24 | DNA damage on nuclear and mitochondrial DNA (PCR band) [3]: DNA damaging effect but to a lesser degree compared to Example compounds 1, 2 and 18
3 | COC(=O)[C@H](CC(C)C)NC(=O)[C@@H](N)CCc1nc2cc(N(CCCl)CCCl)ccc2n1C [Example 27, Methyl (2S)-2-[[(2S)-2-amino-4-[5-[bis(2-chloroethyl)amino]-1-methyl-benzimidazol-2-yl]butanoyl]amino]-4-methyl-pentanoate] | 8.09 | 
4 | CC(C)C[C@H](NC(=O)[C@@H](N)CCc1nc2cc(N(CCCl)CCCl)ccc2n1C)C(=O)OCCCN(C)C [Example 28, 3-(Dimethylamino)propyl (2S)-2-[[(2S)-2-amino-4-[5-[bis(2-chloroethyl)amino]-1-methyl-benzimidazol-2-yl]butanoyl]amino]-4-methyl-pentanoate] | 6.45 | 
5 | COCC(C)OC(=O)[C@H](CC(C)C)NC(=O)[C@@H](N)CCc1nc2cc(N(CCCl)CCCl)ccc2n1C (stereo partly drawn) [Example 29, (2-Methoxy-1-methyl-ethyl) (2S)-2-[[(2S)-2-amino-4-[5-[bis(2-chloroethyl)amino]-1-methyl-benzimidazol-2-yl]butanoyl]amino]-4-methyl-pentanoate] |  | pIC50 (MM.1S cells [1]; CellTiter-Glo 2.0): 8.85
6 | CNC(=O)[C@H](CC(C)C)NC(=O)[C@@H](N)CCc1nc2cc(N(CCCl)CCCl)ccc2n1C [Example 31, (2S)-2-[[(2S)-2-amino-4-[5-[bis(2-chloroethyl)amino]-1-methyl-benzimidazol-2-yl]butanoyl]amino]-N,4-dimethyl-pentanamide] | 6.74 | 
7 | CCOC(=O)[C@H](CC(C)C)NC(=O)[C@H](CCc1nc2cc(N(CCCl)CCCl)ccc2n1C)NC [Example 32, Ethyl (2S)-2-[[(2S)-4-[5-[bis(2-chloroethyl)amino]-1-methyl-benzimidazol-2-yl]-2-(methylamino)butanoyl]amino]-4-methyl-pentanoate] | 7.84 | 
8 | CN[C@@H](CCc1nc2cc(N(CCCl)CCCl)ccc2n1C)C(=O)N[C@@H](CC(C)C)C(=O)O [Example 33, (2S)-2-[[(2S)-4-[5-[bis(2-chloroethyl)amino]-1-methyl-benzimidazol-2-yl]-2-(methylamino)butanoyl]amino]-4-methyl-pentanoic acid] | 4.10 | 
9 | CCOC(=O)[C@H](CC(C)C)NC(=O)[C@H](Cc1nc2cc(N(CCCl)CCCl)ccc2n1C)NC(C)=O [Example 35, Ethyl (2S)-2-[[(2S)-2-acetamido-3-[5-[bis(2-chloroethyl)amino]-1-methyl-benzimidazol-2-yl]propanoyl]amino]-4-methyl-pentanoate] | 7.06 | 
10 | CCOC(=O)[C@H](Cc1ccc(F)cc1)NC(=O)[C@H](Cc1nc2cc(N(CCCl)CCCl)ccc2n1C)NC(C)=O [Example 36, Ethyl (2S)-2-[[(2S)-2-acetamido-3-[5-[bis(2-chloroethyl)amino]-1-methyl-benzimidazol-2-yl]propanoyl]amino]-3-(4-fluorophenyl)propanoate] | 7.24 | 
11 | Cn1c(CC[C@H](N)C(=O)N[C@@H](Cc2ccc(F)cc2)C(=O)O)nc2cc(N(CCCl)CCCl)ccc21 [Example 39, (2S)-2-[[(2S)-2-Amino-4-[5-[bis(2-chloroethyl)amino]-1-methyl-benzimidazol-2-yl]butanoyl]amino]-3-(4-fluorophenyl)propanoic acid] | < 5.70 | 
12 | CC(C)C[C@H](NC(=O)[C@@H](N)CCc1nc2cc(N(CCCl)CCCl)ccc2n1-c1ccccc1)C(=O)O [Example 40, (2S)-2-[[(2S)-2-Amino-4-[5-[bis(2-chloroethyl)amino]-1-phenyl-benzimidazol-2-yl]butanoyl]amino]-4-methyl-pentanoic acid] | 5.14 | 
13 | N[C@@H](CCc1nc2cc(N(CCCl)CCCl)ccc2n1-c1ccccc1)C(=O)O [Example 41, (2S)-2-Amino-4-[5-[bis(2-chloroethyl)amino]-1-phenyl-benzimidazol-2-yl]butanoic acid] | 4.78 | 
14 | CCOC(=O)[C@@H](CC(C)C)NC(=O)[C@@H](N)CCc1nc2cc(N(CCCl)CCCl)ccc2n1C [Example 45, Ethyl (2R)-2-[[(2S)-2-amino-4-[5-[bis(2-chloroethyl)amino]-1-methyl-benzimidazol-2-yl]butanoyl]amino]-4-methyl-pentanoate] | 6.29 | 
15 | CCOC(=O)[C@H](CC(C)C)NC(=O)[C@H](N)CCc1nc2cc(N(CCCl)CCCl)ccc2n1C [Example 46, Ethyl (2S)-2-[[(2R)-2-amino-4-[5-[bis(2-chloroethyl)amino]-1-methyl-benzimidazol-2-yl]butanoyl]amino]-4-methyl-pentanoate] | 7.23 | 
16 | CCOC(=O)[C@@H](CC(C)C)NC(=O)[C@H](N)CCc1nc2cc(N(CCCl)CCCl)ccc2n1C [Example 47, Ethyl (2R)-2-[[(2R)-2-amino-4-[5-[bis(2-chloroethyl)amino]-1-methyl-benzimidazol-2-yl]butanoyl]amino]-4-methyl-pentanoate] | 5.77 | 
17 | CCOC(=O)[C@H](CC(C)C)NC(=O)[C@@H](N)CCc1nc2cc(N(CCCl)CCCl)cnc2n1C [Example 48, Ethyl (2S)-2-[[(2S)-2-amino-4-[6-[bis(2-chloroethyl)amino]-3-methyl-imidazo[4,5-b]pyridin-2-yl]butanoyl]amino]-4-methyl-pentanoate] | 6.69 | 
